Values belong to the compound of their own block, whether it stands above or below them.
Assays:
[1] = biological target: T1, AP2-associated protein kinase 1 (Homo sapiens, UniProt Q2M2I8)
[2] = Permeability of the compound at pH 7.4 by PAMPA; type: ADME; conditions: read-out: permeability
[3] = Permeability of the compound at pH 5.5 by PAMPA; type: ADME; conditions: read-out: permeability
[4] = Permeability across basolateral to apical side in human Caco-2 cells incubated for 2 hrs by LC-MS/MS analysis; type: ADME, cell-based; conditions: for Papp B→A at 2 h: Caco-2, read-out: permeability
[5] = Plasma concentration in C57BL6 mouse at 60 mg/kg, sc by LC-MS/MS analysis; type: ADME, organism-based; conditions: in vivo
[6] = Brain concentration in C57BL6 mouse at 60 mg/kg, sc by LC-MS analysis; type: ADME, organism-based; conditions: in vivo, read-out: Ct
[7] = Ratio of drug concentration in brain to plasma in C57BL6 mouse at 60 mg/kg, sc; type: ADME, organism-based; conditions: read-out: BPR
[8] = Unbound brain to plasma concentration ratio in C57BL6 mouse at 60 mg/kg, sc; type: ADME, organism-based; conditions: read-out: K(p,uu,brain)
[9] = Metabolic stability in rat liver microsomes assessed as parent compound remaining at 0.5 uM incubated for 10 mins in presence of NADPH by LC-MS/MS analysis; type: ADME, Microsome; conditions: read-out: Stability
[10] = Metabolic stability in human liver microsomes assessed as parent compound remaining at 0.5 uM incubated for 10 mins in presence of NADPH by LC-MS/MS analysis; type: ADME, Microsome; conditions: read-out: Stability
[11] = biological target: T1, AP2-associated protein kinase 1; assay: Inhibition of full length human AAK1 expressed in HEK293F incubated for 3 hrs by Western blot analysis; type: cell-based
[12] = Metabolic stability in mouse liver microsomes assessed as parent compound remaining at 0.5 uM incubated for 10 mins in presence of NADPH by LC-MS/MS analysis; type: ADME, Microsome; conditions: read-out: Stability
[13] = Plasma protein binding in human assessed as unbound fraction at 10 uM incubated for 5 hrs by rapid equlibrium dialysis based LC-MS/MS method
[14] = Plasma protein binding in rat assessed as unbound fraction at 10 uM incubated for 5 hrs by rapid equlibrium dialysis based LC-MS/MS method
[15] = Plasma protein binding in mouse assessed as unbound fraction at 10 uM incubated for 5 hrs by rapid equlibrium dialysis based LC-MS/MS method
[16] = Permeability across apical to basolateral side in human Caco-2 cells incubated for 2 hrs by LC-MS/MS analysis
[17] = Ratio of drug concentration in brain to plasma in C57BL6 mouse at 30 mg/kg, sc; type: ADME, organism-based; conditions: read-out: BPR
[18] = Plasma concentration in C57BL6 mouse at 30 mg/kg, sc by LC-MS/MS analysis; type: ADME, organism-based; conditions: in vivo
[19] = Brain concentration in C57BL6 mouse at 30 mg/kg, sc by LC-MS analysis; type: ADME, organism-based; conditions: in vivo, read-out: Ct
[20] = Unbound brain to plasma concentration ratio in C57BL6 mouse at 30 mg/kg, sc; type: ADME, organism-based; conditions: read-out: K(p,uu,brain)
[21] = biological target: BMP-2-inducible protein kinase (Homo sapiens, UniProt Q9NSY1); assay: Inhibition of BIKE (unknown origin)
[22] = biological target: T2, Serine/threonine-protein kinase Chk1 (Homo sapiens, UniProt O14757); assay: Inhibition of CHK1 (unknown origin)
T2 sequence (O14757 whole entry): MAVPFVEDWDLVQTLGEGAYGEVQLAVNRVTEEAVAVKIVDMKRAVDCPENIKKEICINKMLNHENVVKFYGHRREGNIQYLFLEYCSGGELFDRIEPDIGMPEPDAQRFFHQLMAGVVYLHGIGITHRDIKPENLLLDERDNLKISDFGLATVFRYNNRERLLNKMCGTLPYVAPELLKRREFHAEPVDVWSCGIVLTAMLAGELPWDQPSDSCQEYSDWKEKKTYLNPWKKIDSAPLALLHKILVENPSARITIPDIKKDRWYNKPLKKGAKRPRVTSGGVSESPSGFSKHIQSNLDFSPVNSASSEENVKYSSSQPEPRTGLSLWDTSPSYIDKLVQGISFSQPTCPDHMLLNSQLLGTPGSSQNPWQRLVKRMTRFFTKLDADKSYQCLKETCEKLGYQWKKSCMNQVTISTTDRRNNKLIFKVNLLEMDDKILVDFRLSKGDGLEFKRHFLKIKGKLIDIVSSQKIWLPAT

[23] = biological target: Glycogen synthase kinase-3 beta (Homo sapiens, UniProt P49841); assay: Inhibition of GSK3beta (unknown origin)
[24] = biological target: MAP kinase-interacting serine/threonine-protein kinase 1 (Homo sapiens, UniProt Q9BUB5); assay: Inhibition of MNK1 (unknown origin)
[25] = biological target: T3, Cyclin-G-associated kinase (Homo sapiens, UniProt O14976); assay: Inhibition of GAK (unknown origin)
T3 sequence (O14976 whole entry): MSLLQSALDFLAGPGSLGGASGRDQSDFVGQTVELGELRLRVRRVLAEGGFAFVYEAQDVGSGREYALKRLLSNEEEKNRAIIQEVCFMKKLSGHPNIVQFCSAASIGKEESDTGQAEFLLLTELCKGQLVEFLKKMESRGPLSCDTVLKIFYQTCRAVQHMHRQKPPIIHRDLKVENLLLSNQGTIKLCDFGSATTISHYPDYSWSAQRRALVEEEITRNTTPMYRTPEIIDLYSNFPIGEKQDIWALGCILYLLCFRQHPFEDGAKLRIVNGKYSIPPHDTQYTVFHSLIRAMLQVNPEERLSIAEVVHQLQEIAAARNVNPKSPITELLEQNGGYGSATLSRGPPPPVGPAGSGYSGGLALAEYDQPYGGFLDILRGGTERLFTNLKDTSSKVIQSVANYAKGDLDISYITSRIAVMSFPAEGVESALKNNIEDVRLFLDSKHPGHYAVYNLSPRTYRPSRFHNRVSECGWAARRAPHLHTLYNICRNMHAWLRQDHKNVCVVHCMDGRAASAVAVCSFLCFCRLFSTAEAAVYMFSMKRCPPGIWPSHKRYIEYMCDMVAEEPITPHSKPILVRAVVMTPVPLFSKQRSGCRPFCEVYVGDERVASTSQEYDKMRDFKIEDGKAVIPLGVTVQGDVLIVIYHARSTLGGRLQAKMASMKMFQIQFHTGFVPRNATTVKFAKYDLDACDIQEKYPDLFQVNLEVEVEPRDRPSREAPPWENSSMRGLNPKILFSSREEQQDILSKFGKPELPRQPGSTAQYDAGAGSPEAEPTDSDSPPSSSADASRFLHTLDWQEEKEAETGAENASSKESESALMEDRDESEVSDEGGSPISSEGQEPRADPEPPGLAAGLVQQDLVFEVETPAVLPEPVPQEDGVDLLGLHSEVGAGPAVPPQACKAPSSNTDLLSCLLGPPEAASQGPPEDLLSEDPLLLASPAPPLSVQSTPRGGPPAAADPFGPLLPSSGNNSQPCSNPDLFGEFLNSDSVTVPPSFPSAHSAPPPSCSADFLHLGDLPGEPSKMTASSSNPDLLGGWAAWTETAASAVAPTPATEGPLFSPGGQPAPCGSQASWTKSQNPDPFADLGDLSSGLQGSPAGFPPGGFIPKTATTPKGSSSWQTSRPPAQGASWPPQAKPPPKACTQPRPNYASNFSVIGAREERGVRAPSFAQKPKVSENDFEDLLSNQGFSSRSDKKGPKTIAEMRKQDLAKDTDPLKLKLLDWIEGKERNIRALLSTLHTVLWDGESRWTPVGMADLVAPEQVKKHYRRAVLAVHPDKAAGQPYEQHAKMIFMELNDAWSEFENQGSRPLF

[26] = biological target: Serine/threonine-protein kinase 16 (Homo sapiens, UniProt O75716); assay: Inhibition of MPSK1 (unknown origin)
Serine/threonine-protein kinase 16, sequence (O75716 whole entry): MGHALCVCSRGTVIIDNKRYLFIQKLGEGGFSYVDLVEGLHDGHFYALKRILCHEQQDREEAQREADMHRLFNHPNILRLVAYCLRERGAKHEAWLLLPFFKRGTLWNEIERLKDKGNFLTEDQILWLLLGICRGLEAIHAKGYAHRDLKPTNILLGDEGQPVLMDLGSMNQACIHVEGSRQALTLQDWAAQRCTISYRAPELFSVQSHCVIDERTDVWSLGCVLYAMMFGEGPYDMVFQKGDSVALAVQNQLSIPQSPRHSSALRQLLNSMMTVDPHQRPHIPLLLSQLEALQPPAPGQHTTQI

T1 sequence (Q2M2I8 whole entry): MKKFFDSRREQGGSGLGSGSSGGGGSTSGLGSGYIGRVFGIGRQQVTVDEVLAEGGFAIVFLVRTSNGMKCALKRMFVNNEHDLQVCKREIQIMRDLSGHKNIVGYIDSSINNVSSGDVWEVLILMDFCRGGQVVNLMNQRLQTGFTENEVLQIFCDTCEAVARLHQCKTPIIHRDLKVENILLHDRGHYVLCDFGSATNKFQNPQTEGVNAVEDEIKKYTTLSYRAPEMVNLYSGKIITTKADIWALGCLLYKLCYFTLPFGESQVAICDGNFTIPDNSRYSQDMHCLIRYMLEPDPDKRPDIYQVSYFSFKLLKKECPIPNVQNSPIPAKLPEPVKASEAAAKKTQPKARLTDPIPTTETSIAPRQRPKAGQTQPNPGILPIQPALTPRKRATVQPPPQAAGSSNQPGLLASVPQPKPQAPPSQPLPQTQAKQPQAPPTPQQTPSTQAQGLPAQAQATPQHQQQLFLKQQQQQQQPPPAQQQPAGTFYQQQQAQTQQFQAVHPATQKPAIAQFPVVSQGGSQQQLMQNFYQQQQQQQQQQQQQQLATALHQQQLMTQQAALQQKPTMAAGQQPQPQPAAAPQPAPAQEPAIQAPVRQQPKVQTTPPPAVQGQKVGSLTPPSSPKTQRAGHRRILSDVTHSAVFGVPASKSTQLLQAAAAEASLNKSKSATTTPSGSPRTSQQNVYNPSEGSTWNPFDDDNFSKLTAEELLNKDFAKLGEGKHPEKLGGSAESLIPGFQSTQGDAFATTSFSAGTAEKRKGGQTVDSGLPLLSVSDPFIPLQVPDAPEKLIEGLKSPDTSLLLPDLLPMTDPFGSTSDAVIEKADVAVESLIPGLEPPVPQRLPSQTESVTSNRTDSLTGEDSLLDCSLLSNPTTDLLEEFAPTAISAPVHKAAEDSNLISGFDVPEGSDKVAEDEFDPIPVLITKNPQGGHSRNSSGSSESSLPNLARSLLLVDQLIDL
BMP-2-inducible protein kinase, sequence (Q9NSY1 whole entry): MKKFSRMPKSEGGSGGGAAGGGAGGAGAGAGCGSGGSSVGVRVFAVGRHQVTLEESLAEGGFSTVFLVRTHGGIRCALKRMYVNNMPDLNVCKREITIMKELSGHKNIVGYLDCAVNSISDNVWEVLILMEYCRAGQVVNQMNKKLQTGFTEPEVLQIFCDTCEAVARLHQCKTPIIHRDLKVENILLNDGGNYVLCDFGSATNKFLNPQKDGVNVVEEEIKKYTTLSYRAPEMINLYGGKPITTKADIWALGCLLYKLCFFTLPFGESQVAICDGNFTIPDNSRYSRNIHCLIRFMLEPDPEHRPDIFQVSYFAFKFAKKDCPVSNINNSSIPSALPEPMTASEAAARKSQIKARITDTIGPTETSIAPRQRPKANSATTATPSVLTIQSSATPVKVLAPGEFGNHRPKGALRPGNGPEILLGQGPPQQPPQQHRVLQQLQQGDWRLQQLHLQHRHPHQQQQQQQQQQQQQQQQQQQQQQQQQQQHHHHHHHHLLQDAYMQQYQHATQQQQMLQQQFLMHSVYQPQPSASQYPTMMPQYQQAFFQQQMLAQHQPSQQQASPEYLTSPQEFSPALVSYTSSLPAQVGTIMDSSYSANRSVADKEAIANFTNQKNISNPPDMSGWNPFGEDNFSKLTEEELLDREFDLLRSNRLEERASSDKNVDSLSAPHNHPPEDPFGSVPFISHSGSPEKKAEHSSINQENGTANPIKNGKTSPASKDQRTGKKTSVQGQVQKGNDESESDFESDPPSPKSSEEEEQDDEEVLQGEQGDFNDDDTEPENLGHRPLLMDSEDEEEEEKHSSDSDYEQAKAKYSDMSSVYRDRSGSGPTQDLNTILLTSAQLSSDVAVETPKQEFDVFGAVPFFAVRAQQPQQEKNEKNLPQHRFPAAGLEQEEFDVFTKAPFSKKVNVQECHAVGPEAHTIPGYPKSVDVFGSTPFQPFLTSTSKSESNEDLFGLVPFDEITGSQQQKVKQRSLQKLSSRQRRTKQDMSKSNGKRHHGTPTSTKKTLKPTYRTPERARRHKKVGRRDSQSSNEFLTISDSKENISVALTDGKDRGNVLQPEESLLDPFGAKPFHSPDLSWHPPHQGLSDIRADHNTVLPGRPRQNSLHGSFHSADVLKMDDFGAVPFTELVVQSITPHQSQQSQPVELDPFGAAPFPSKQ
MAP kinase-interacting serine/threonine-protein kinase 1, sequence (Q9BUB5 whole entry): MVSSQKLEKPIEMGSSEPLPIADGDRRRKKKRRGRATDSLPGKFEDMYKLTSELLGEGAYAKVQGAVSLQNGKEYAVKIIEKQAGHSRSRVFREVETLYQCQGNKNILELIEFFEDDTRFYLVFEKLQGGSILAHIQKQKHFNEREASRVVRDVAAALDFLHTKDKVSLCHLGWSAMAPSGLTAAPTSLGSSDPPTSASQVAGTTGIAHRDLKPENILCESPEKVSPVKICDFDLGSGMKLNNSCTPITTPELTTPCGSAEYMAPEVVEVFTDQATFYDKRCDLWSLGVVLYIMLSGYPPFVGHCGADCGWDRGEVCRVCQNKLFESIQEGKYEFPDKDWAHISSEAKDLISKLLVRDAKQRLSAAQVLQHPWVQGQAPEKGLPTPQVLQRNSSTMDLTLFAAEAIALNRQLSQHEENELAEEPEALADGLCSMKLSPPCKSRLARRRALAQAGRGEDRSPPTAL
Glycogen synthase kinase-3 beta, sequence (P49841 whole entry): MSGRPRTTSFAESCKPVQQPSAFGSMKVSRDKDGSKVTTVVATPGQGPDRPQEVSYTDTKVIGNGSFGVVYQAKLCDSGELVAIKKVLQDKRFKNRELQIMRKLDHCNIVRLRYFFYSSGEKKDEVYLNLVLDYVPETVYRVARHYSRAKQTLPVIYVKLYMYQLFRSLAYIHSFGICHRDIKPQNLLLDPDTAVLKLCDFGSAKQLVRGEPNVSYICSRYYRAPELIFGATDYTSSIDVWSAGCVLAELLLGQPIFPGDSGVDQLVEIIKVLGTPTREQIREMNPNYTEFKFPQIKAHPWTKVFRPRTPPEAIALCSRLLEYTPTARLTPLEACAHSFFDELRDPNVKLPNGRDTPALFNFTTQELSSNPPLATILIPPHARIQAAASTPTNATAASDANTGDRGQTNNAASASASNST

Compound: CC(C)C[C@@H](N)C(=O)Nc1ccc(-c2cnco2)c(OC(F)F)c1
Papp [2]: 91.8 ×10⁻⁶ cm/s
Papp [3]: 96.7 ×10⁻⁶ cm/s
permeability ([4]; caco-2, 2 h): 11.3 10^-6 cm/s
concentration [5]: 41 µM
concentration [6]: 27 µM
Kp [7]: 0.7
Kp uu [8]: 0.5

Compound: CC(C)C[C@@H](N)c1cc(C#N)c2cc(-c3ccncc3)ccc2n1
remaining at 10 min, 0.5 µM [9]: 43%
remaining at 10 min, 0.5 µM [10]: 83%
IC50 [11]: 0.108 µM
remaining at 10 min, 0.5 µM [12]: 77%
fraction unbound at 5 h, 10 µM [13]: 0.18
fraction unbound at 5 h, 10 µM [14]: 0.045
fraction unbound at 5 h, 10 µM [15]: 0.13
Papp [2]: 30.7 ×10⁻⁶ cm/s
Papp [3]: 40 ×10⁻⁶ cm/s
Papp A→B at 2 h [16]: 13.5 ×10⁻⁶ cm/s
Papp B→A at 2 h [4]: 10.3 ×10⁻⁶ cm/s
Kp [17]: 1.3
concentration [18]: 23 µM
concentration [19]: 29 µM
Kp uu [20]: 0.4
IC50 [1]: 0.011 µM

Compound: CCc1nc(C(N)CC(C)C)nc2cc(OC)c(-c3ccncc3)cc12 (centres undefined)
IC50 [1]: 0.42 µM

Compound: CC(C)CC(N)c1cc(C#N)c2cc(-c3ccncc3)ccc2n1 (centres undefined)
IC50 [1]: 0.0073 µM

Compound: CCc1nc(C(N)CC(C)C)nc2ccc(-c3ccncc3)cc12 (centres undefined)
IC50 [1]: 0.044 µM

Compound: CCc1nc([C@@H](N)CC(C)C)nc2cc(OC)c(-c3cnco3)cc12
remaining at 10 min, 0.5 µM [9]: 43%
remaining at 10 min, 0.5 µM [10]: 83%
IC50 [11]: 0.034 µM
remaining at 10 min, 0.5 µM [12]: 47%
fraction unbound at 5 h, 10 µM [13]: 0.17
fraction unbound at 5 h, 10 µM [14]: 0.077
fraction unbound at 5 h, 10 µM [15]: 0.1
Papp [2]: 78.5 ×10⁻⁶ cm/s
Papp [3]: 80.3 ×10⁻⁶ cm/s
Papp A→B at 2 h [16]: 13.4 ×10⁻⁶ cm/s
Papp B→A at 2 h [4]: 14.2 ×10⁻⁶ cm/s
IC50 [1]: 0.012 µM

Compound: CC(C)C[C@H](N)c1cc(C#N)c2cc(-c3ccncc3)ccc2n1
remaining at 10 min, 0.5 µM [9]: 50%
remaining at 10 min, 0.5 µM [10]: 72%
IC50 [11]: 0.019 µM
remaining at 10 min, 0.5 µM [12]: 56%
fraction unbound at 5 h, 10 µM [13]: 0.18
fraction unbound at 5 h, 10 µM [14]: 0.054
fraction unbound at 5 h, 10 µM [15]: 0.14
Papp [2]: 96.9 ×10⁻⁶ cm/s
Papp [3]: 112 ×10⁻⁶ cm/s
Papp A→B at 2 h [16]: 11.4 ×10⁻⁶ cm/s
Papp B→A at 2 h [4]: 4.4 ×10⁻⁶ cm/s
IC50 [21]: 0.161 µM
IC50 [22]: 0.998 µM
IC50 [23]: 0.112 µM
IC50 [24]: 0.057 µM
Kp [17]: 1.5
concentration [18]: 16 µM
concentration [19]: 23 µM
Kp uu [20]: 0.4
IC50 [25]: > 1 µM
IC50 [26]: > 1 µM
IC50 [1]: 0.0058 µM

Compound: CCc1nc([C@H](N)CC(C)C)nc2cc(OC)c(-c3cnco3)cc12
IC50 [1]: 0.095 µM

Compound: CC(C)CC(N)c1ccc2cc(-c3ccncc3)ccc2n1 (centres undefined)
IC50 [1]: 0.021 µM

Results, then the compound that gave them:

IC50 [1]: 0.0062 µM
Compound: COc1cc2nc(C(N)CC(C)C)nc(C#N)c2cc1-c1cnco1 (centres undefined)

IC50 [1]: 0.11 µM
Compound: COc1cc2nc(C(N)CC(C)C)ncc2cc1-c1cnco1 (centres undefined)

IC50 [1]: 0.34 µM
Compound: CCOc1nc(C(N)CC(C)C)nc2ccc(-c3cnco3)cc12 (centres undefined)

IC50 [1]: 0.22 µM
Compound: CCc1nc([C@H](N)CC(C)C)nc2ccc(-c3cnco3)cc12

IC50 [1]: 1.8 µM
Compound: CC(C)CC(N)c1nc2ccc(-c3ccncc3)cc2cc1C#N (centres undefined)

IC50 [1]: 0.067 µM
Compound: CCc1nc(C(N)CC(C)C)nc2ccc(-c3cnco3)cc12 (centres undefined)

remaining at 10 min, 0.5 µM [9]: 56%
remaining at 10 min, 0.5 µM [10]: 76%
IC50 [11]: 0.032 µM
remaining at 10 min, 0.5 µM [12]: 71%
fraction unbound at 5 h, 10 µM [13]: 0.014
fraction unbound at 5 h, 10 µM [14]: 0.009
fraction unbound at 5 h, 10 µM [15]: 0.03
Papp [2]: 93 ×10⁻⁶ cm/s
Papp A→B at 2 h [16]: 7.1 ×10⁻⁶ cm/s
Papp B→A at 2 h [4]: 5.7 ×10⁻⁶ cm/s
IC50 [1]: 0.0042 µM
Compound: CC(C)C[C@H](N)c1cc(C#N)c2cc(-c3cnco3)ccc2n1

IC50 [1]: 1.1 µM
Compound: CCNc1nc(C(N)CC(C)C)nc2ccc(-c3cnco3)cc12 (centres undefined)

IC50 [1]: 0.022 µM
Compound: CC(C)C[C@@H](N)c1cc(C#N)c2cc(-c3cnco3)ccc2n1

IC50 [1]: 0.016 µM
Compound: CC(C)CC(N)c1nc(C#N)c2cc(-c3ccncc3)ccc2n1 (centres undefined)

remaining at 10 min, 0.5 µM [9]: 26%
remaining at 10 min, 0.5 µM [10]: 62%
IC50 [11]: 0.049 µM
remaining at 10 min, 0.5 µM [12]: 56%
fraction unbound at 5 h, 10 µM [13]: 0.32
fraction unbound at 5 h, 10 µM [14]: 0.25
fraction unbound at 5 h, 10 µM [15]: 0.11
Papp [2]: 90.7 ×10⁻⁶ cm/s
Papp [3]: 93.5 ×10⁻⁶ cm/s
Papp A→B at 2 h [16]: 18.4 ×10⁻⁶ cm/s
Papp B→A at 2 h [4]: 15.6 ×10⁻⁶ cm/s
IC50 [1]: 0.03 µM
Compound: CCc1nc([C@@H](N)CC(C)C)nc2ccc(-c3cnco3)cc12

— ChEMBL document CHEMBL5154743, “Bicyclic Heterocyclic Replacement of an Aryl Amide Leading to Potent and Kinase-Selective Adaptor Protein 2-Associated Kinase 1 Inhibitors” (J Med Chem, 2022)
